The experiment deals with human H3 receptor (Homo sapiens, UniProt Q9Y5N1). Put plainly: H3 Receptor Binding (Human) Method 2, [125I]-iodoproxyfan competitive radioligand binding. More on the design: expressed in transfected cells.
[1] abbreviates: Method 2, SK-N-MC cell membranes, [125I]-iodoproxyfan 1 nM, apparent Ki, free base or hydrochloride salt, average of results, read-out: Human H3 Ki.

Like-named read-outs stand apart in the source and are kept apart here.

Sequence of human H3 receptor (Q9Y5N1 whole entry): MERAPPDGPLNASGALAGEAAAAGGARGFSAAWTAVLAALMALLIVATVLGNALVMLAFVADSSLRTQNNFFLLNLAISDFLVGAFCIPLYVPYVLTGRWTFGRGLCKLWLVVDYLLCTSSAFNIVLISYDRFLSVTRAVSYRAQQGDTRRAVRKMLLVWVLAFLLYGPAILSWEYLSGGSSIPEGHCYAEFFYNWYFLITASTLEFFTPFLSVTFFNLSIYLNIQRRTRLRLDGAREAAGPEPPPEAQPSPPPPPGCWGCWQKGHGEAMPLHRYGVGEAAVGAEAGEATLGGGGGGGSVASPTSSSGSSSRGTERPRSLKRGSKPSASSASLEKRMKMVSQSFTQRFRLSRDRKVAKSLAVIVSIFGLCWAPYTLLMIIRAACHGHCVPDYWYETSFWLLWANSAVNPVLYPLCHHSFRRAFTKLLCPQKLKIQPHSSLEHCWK
Description: SK-N-MC cells expressing the human H3 receptor were grown to confluence and tissue culture plates, washed with phosphate-buffered saline, and scraped into 50 mL tubes. After centrifugation, the supernatant was aspirated, and the pellets frozen and stored at −80° C. […] The homogenate was centrifuged at 25000×g for 25 min. […] Reactions were stopped by filtration through GF/B filter plates pre-soaked in 0.3% polyethylenimine and subsequently washed with Tris 50 mM, 5 mM EDTA buffer. Plates were dried for 1 h in a 55° C. oven. Scintillation fluid was added and the radioactivity was counted in a Packard TopCount. Non-specific binding to the H3 receptor was defined by radioactivity that was bound in the presence of 100 μM histamine.
Compounds were tested in their free base or hydrochloride salt forms.

Regarding `CC(=O)N1C[C@@H](Oc2cccc(F)c2)C[C@H]1C(=O)N1CCCN(C2CCC2)CC1` [Example 115, (2S,4S)-1-[2-(4-Cyclobutyl-[1,4]diazepane-1-carbonyl)-4-(3-fluoro-phenoxy)-pyrrolidin-1-yl]-ethanone], the Ki stood at 21 nM.
With `CC(C)C(=O)N1C[C@@H](Oc2cccc(F)c2)C[C@@H]1C(=O)N1CCCN(C2CCC2)CC1` [Example 123, (2R,4S)-1-[2-(4-Cyclobutyl-[1,4]diazepane-1-carbonyl)-4-(3-fluoro-phenoxy)-pyrrolidin-1-yl]-2-methyl-propan-1-one], the Ki (read-out: Human H3 Ki) was 18 nM.
Consider `CCC(=O)N1C[C@@H](Oc2cccc(F)c2)C[C@@H]1C(=O)N1CCCN(C2CCC2)CC1` [Example 125, (2R,4S)-1-[2-(4-Cyclobutyl-[1,4]diazepane-1-carbonyl)-4-(3-fluoro-phenoxy)-pyrrolidin-1-yl]-propan-1-one], for which the Ki (read-out: Human H3 Ki) is 3 nM.
On to `CCOC(=O)N1C[C@@H](Oc2cccc(F)c2)C[C@@H]1C(=O)N1CCCN(C2CCC2)CC1` [Example 127, (2R,4S)-2-(4-Cyclobutyl-[1,4]diazepane-1-carbonyl)-4-(3-fluoro-phenoxy) pyrrolidine-1-carboxylic acid ethyl ester], for which the Ki under setting [1] was found to be 16 nM.
For `CC(=O)N1C[C@H](Oc2cccc(F)c2)C[C@H]1C(=O)N1CCCN(C2CCC2)CC1` [Example 129, (2S,4R)-1-[2-(4-Cyclobutyl-[1,4]diazepane-1-carbonyl)-4-(3-fluoro-phenoxy)-pyrrolidin-1-yl]-ethanone], the Ki was 379 nM.
`CC(=O)N1C[C@H](Oc2cccc(F)c2)C[C@@H]1C(=O)N1CCCN(C2CCC2)CC1` [Example 130]: the Ki was found to be 569 nM.
Consider `CC(=O)N1C[C@@H](Oc2ccccn2)C[C@@H]1C(=O)N1CCCN(C2CCC2)CC1` [Example 132, (2R,4S)-1-[2-(4-Cyclobutyl-[1,4]diazepane-1-carbonyl)-4-(Pyridin-2-yloxy)-pyrrolidin-1-yl]-ethanone], for which the Ki (read-out: Human H3 Ki) amounted to 3 nM.
`CC(=O)N1C[C@@H](Oc2cccnc2)C[C@@H]1C(=O)N1CCCN(C2CCC2)CC1` [Example 133, (2R,4S)-1-[2-(4-Cyclobutyl-[1,4]diazepane-1-carbonyl)-4-(Pyridin-3-yloxy)-pyrrolidin-1-yl]-ethanone]: the Ki (read-out: Human H3 Ki) was 3 nM.
The same measure, in the same setting: for `CC(=O)N1C[C@@H](Oc2cccs2)C[C@@H]1C(=O)N1CCCN(C2CCC2)CC1` [Example 135, (2R,4S)-1-[2-(4-Cyclobutyl-[1,4]diazepane-1-carbonyl)-4-(thiophen-2-yloxy)-pyrrolidin-1-yl]-ethanone] the value was 3 nM; for `CC(=O)N1C[C@@H](Oc2ccc3c(c2)OCCO3)C[C@@H]1C(=O)N1CCCN(C2CCC2)CC1` [Example 136, (2R,4S)-1-[2-(4-Cyclobutyl-[1,4]diazepane-1-carbonyl)-4-(2,3-dihydro-benzo[1,4]dioxin-6-yloxy)-pyrrolidin-1-yl]-ethanone], 2 nM.
For `CS(=O)(=O)N1C[C@@H](Oc2ccc(F)cc2)C[C@@H]1C(=O)N1CCCN(C2CCC2)CC1` [Example 140, (2R,4S)-(4-Cyclobutyl-[1,4]diazepan-1-yl)-[4-(4-fluoro-phenoxy)-1-methanesulfonyl-pyrrolidin-2-yl]-methanone], the Ki (read-out: Human H3 Ki) came out at 1 nM.
`O=C([C@@H]1C[C@H](Oc2ccc(F)cc2)CN1C1CC1)N1CCCN(C2CCC2)CC1` [Example 141, (2S,4S)-2-(4-Cyclobutyl-[1,4]diazepan-1-yl)-[1-cyclopropyl-4-(4-fluoro-phenoxy)-pyrrolidin-2-yl]-methanone]: the Ki under setting [1] is 55 nM.
Same read-out and setting: for `O=C([C@H]1C[C@H](Oc2ccc(F)cc2)CN1C1CC1)N1CCCN(C2CCC2)CC1` [Example 142, (2R,4S)-1-Cyclopropyl-2-(4-cyclobutyl-[1,4]diazepane-1-carbonyl)-4-(4-fluoro-phenoxy)-pyrrolidine] the value was 13 nM.
Regarding `CC(C)(C)OC(=O)N1CC[C@@H](Oc2cccc(F)c2)[C@H]1C(=O)N1CCCN(C2CCC2)CC1` [Example 143, (2S,3R)-2-(4-Cyclobutyl-[1,4]diazepane-1-carbonyl)-3-(3-fluoro-phenoxy)-pyrrolidine-1-carboxylic acid tert-butyl ester], the Ki (read-out: Human H3 Ki) came to 845 nM.
Still for that read-out and setting: the figure for `CC(C)(C)OC(=O)N1CC[C@@H](Oc2ccc(F)cc2)[C@H]1C(=O)N1CCCN(C2CCC2)CC1` [Example 144, (2S,3R)-2-(4-Cyclobutyl-[1,4]diazepane-1-carbonyl)-3-(4-fluoro-phenoxy)-pyrrolidine-1-carboxylic acid tert-butyl ester] is 957 nM; for `CC(C)(C)OC(=O)N1CC[C@@H](Oc2ccc(C#N)cc2)[C@H]1C(=O)N1CCCN(C2CCC2)CC1` [Example 145, (2S,3R)-3-(4-Cyano-phenoxy)-2-(4-cyclobutyl-[1,4]diazepane-1-carbonyl)-pyrrolidine-1-carboxylic acid tert-butyl ester] it is 1100 nM.
For the compound `CSc1ccc(O[C@@H]2CCN(C(=O)OC(C)(C)C)[C@@H]2C(=O)N2CCCN(C3CCC3)CC2)cc1` [Example 146, (2S,3R)-2-(4-Cyclobutyl-[1,4]diazepane-1-carbonyl)-3-(4-methylsulfanyl-phenoxy)-pyrrolidine-1-carboxylic acid tert-butyl ester], where the note is “read-out: Human H3 Ki”, the Ki came to 1470 nM.
Regarding `CC(C)(C)OC(=O)N1C[C@@H](OCc2cccc(F)c2)C[C@@H]1C(=O)N1CCCN(C2CCC2)CC1` [Example 147, (2R,4S)-2-(4-Cyclobutyl-[1,4]diazepane-1-carbonyl)-4-(3-fluoro-benzyloxy)-pyrrolidine-1-carboxylic acid tert-butyl ester], the Ki (read-out: Human H3 Ki) stood at 8 nM.
Regarding `CC(C)(C)OC(=O)N1C[C@@H](OCc2ccc(F)cc2)C[C@@H]1C(=O)N1CCCN(C2CCC2)CC1` [Example 148, (2R,4S)-2-(4-Cyclobutyl-[1,4]diazepane-1-carbonyl)-4-(4-fluoro-benzyloxy)-pyrrolidine-1-carboxylic acid tert-butyl ester], for the setting “read-out: Human H3 Ki”, the Ki turned out to be 6 nM.
`CC(C)(C)OC(=O)N1C[C@@H](OCc2ccc(C#N)cc2)C[C@@H]1C(=O)N1CCCN(C2CCC2)CC1` [Example 149, (2R,4S)-4-(4-Cyano-benzyloxy)-2-(4-cyclobutyl-[1,4]diazepane-1-carbonyl)-pyrrolidine-1-carboxylic acid tert-butyl ester]: the Ki (read-out: Human H3 Ki) amounted to 13 nM.
Take `CC(=O)N1C[C@@H](Oc2cccc(F)c2)C[C@@H]1C(=O)N1CCCNCC1` [Example 156, (2R,4S)-4-[1-Acetyl-4-(3-fluoro-Phenoxy)-pyrrolidine-2-carbonyl]-[1,4]diazepane]: the Ki (read-out: Human H3 Ki) is 1160 nM.
Still for that read-out and setting: the figure for `CC(C)(C)OC(=O)N1CCC[C@]1(Cc1cccc(F)c1)C(=O)N1CCCN(C2CCC2)CC1` [Example 164, (2S)-2-(4-Cyclobutyl-[1,4]diazepane-1-carbonyl)-2-(3-fluoro-benzyl)-pyrrolidine-1-carboxylic acid tert-butyl ester] is 53 nM; for `CC(C)(C)OC(=O)N1CCC[C@]1(Cc1ccc(F)cc1)C(=O)N1CCCN(C2CCC2)CC1` [Example 165, (2S)-2-(4-Cyclobutyl-[1,4]diazepane-1-carbonyl)-2-(4-fluoro-benzyl)-pyrrolidine-1-carboxylic acid tert-butyl ester] it is 257 nM; for `CC(C)(C)OC(=O)N1CCC[C@]1(Cc1ccc(C(F)(F)F)cc1)C(=O)N1CCCN(C2CCC2)CC1` [Example 166, (2S)-2-(4-Cyclobutyl-[1,4]diazepane-1-carbonyl)-2-(4-trifluoromethyl-benzyl)-pyrrolidine-1-carboxylic acid tert-butyl ester] it is 60 nM.
On the same count and under the same terms, for `CC(C)(C)OC(=O)N1CCC[C@]1(Cc1ccccc1)C(=O)N1CCCN(C2CCC2)CC1` [Example 167, (2S)-2-Benzyl-2-(4-cyclobutyl-[1,4]diazepane-1-carbonyl)-pyrrolidine-1-carboxylic acid tert-butyl ester] the value was 51 nM.
On to `O=C(N1CCCN(C2CCC2)CC1)[C@@]1(Cc2cccc(F)c2)CCCN1` [Example 168, (2S)-2-(4-Cyclobutyl-[1,4]diazepane-1-carbonyl)-2-(3-fluoro-benzyl)-pyrrolidine], for which, under setting [1], the Ki was 44 nM.
`O=C(N1CCCN(C2CCC2)CC1)[C@@]1(Cc2ccc(F)cc2)CCCN1` [Example 169, (2S)-(4-Cyclobutyl-[1,4]diazepan-1-yl)-[2-(4-fluoro-benzyl)-pyrrolidin-2-yl]-methanone]: the Ki (read-out: Human H3 Ki) came to 27 nM.
With `O=C(N1CCCN(C2CCC2)CC1)[C@@]1(Cc2ccc(C(F)(F)F)cc2)CCCN1` [Example 170, (2S)-(4-Cyclobutyl-[1,4]diazepan-1-yl)-[2-(4-trifluoromethyl-benzyl)-pyrrolidin-2-yl]-methanone], under setting [1], the Ki amounted to 201 nM.
On to `O=C(N1CCCN(C2CCC2)CC1)[C@@]1(Cc2ccccc2)CCCN1` [Example 171, (2S)-(2-Benzyl-pyrrolidin-2-yl)-(4-cyclobutyl-[1,4]diazepan-1-yl)-methanone], for which the Ki under setting [1] stood at 11 nM.
For the compound `CC(C)(C)OC(=O)N1C[C@H](Cc2ccccc2)C[C@H]1C(=O)N1CCCN(C2CCC2)CC1` [Example 173, (2S,4R)-4-Benzyl-2-(4-cyclobutyl-[1,4]diazepane-1-carbonyl)-pyrrolidine-1-carboxylic acid tert-butyl ester], the Ki (read-out: Human H3 Ki) turned out to be 39 nM.
Still for that read-out and setting: for `CC(C)(C)OC(=O)N1C[C@H](Cc2ccc(F)cc2)C[C@H]1C(=O)N1CCCN(C2CCC2)CC1` [Example 174, (2S,4R)-2-(4-Cyclobutyl-[1,4]diazepane-1-carbonyl)-4-(4-fluoro-benzyl)pyrrolidine-1-carboxylic acid tert-butyl ester] the value was 53 nM; for `CC(C)(C)OC(=O)N1C[C@H](Cc2cccc(F)c2)C[C@H]1C(=O)N1CCCN(C2CCC2)CC1` [Example 175, (2S,4R)-2-(4-Cyclobutyl-[1,4]diazepane-1-carbonyl)-4-(3-fluoro-benzyl)-pyrrolidine-1-carboxylic acid tert-butyl ester], 72 nM.
Regarding `CC(C)(C)OC(=O)N1C[C@H](Cc2ccsc2)C[C@H]1C(=O)N1CCCN(C2CCC2)CC1` [Example 176, (2S,4R)-2-(4-Cyclobutyl-[1,4]diazepane-1-carbonyl)-4-thiophen-3-ylmethyl-pyrrolidine-1-carboxylic acid tert-butyl ester], for the setting “read-out: Human H3 Ki”, the Ki was 20 nM.

Values taken from patent publication US8236792B2, “Substituted pyrrolidine amides as modulators of the histamine H3 receptor” (Janssen Pharmaceutica NV, priority 2008, dated 2012).
